Test results taken from PubChem BioAssay (NCI).
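Protocol summary: plate cells (96-well), add compound at 5 concentrations, incubate 48 h, interpolate endpoints linearly. TGI marks complete inhibition of growth.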

Experiments:
Assay in all cases: NCI anticancer screen, dose series, 48 h
SR leukemia = test system: SR leukemia
MALME-3M melanoma = test system: MALME-3M melanoma
SK-MEL-28 melanoma = test system: SK-MEL-28 melanoma
RXF 393 renal = test system: RXF 393 renal
786-0 renal = test system: 786-0 renal
NCI-H522 lung = test system: NCI-H522 lung
NCI-H460 lung = test system: NCI-H460 lung
PC-3 prostate = test system: PC-3 prostate
SN12C renal = test system: SN12C renal
SF-268 CNS = test system: SF-268 CNS
SNB-19 CNS = test system: SNB-19 CNS
HS 578T breast = test system: HS 578T breast
HOP-92 NSCLC = test system: HOP-92 NSCLC
CCRF-CEM leukemia = test system: CCRF-CEM leukemia
OVCAR-4 ovarian = test system: OVCAR-4 ovarian
SNB-75 CNS = test system: SNB-75 CNS

SMILES	TGI (SR leukemia) [µM]	TGI (MALME-3M melanoma) [µM]	TGI (SK-MEL-28 melanoma) [µM]	TGI (RXF 393 renal) [µM]	TGI (786-0 renal) [µM]	TGI (NCI-H522 lung) [µM]	TGI (NCI-H460 lung) [µM]	TGI (PC-3 prostate) [µM]	TGI (SN12C renal) [µM]	TGI (SF-268 CNS) [µM]	TGI (SNB-19 CNS) [µM]	TGI (HS 578T breast) [µM]	TGI (HOP-92 NSCLC) [µM]	TGI (CCRF-CEM leukemia) [µM]	TGI (OVCAR-4 ovarian) [µM]	TGI (SNB-75 CNS) [µM]
CSc1ccccc1NC1=NCCO1	> 100	> 100	> 100	> 100	> 100	> 100	> 100	> 100	> 100	> 100	> 100	> 100	> 100	> 100	> 100	–
CN1CC=C(C#CC(C)(C)O)CC1	> 37.5	> 37.5	> 37.5	> 37.5	> 37.5	–	> 37.5	> 37.5	> 37.5	> 37.5	> 37.5	> 37.5	–	> 37.5	> 37.5	> 37.5
C=C1C(=O)O[C@H]2C(=O)[C@H](C)CCC/C(C)=C/CC[C@@]3(C)O[C@@H]3C[C@@H]12	10.5	–	–	–	3.02	4.06	30.8	21.2	18.3	16.4	24.1	28.4	2.99	4.18	–	–
C#CC(O)/C=C/C(O)CCCC(O)CC#CC(O)C#CCCCCC(O)/C=C/CCCCCC(=O)CCCCCCCCCCCCCC(O)C(O)C#CC(=O)O (stereo not given)	19.1	> 25	> 25	–	> 25	9.83	> 25	> 25	> 25	> 25	> 25	> 25	> 25	> 25	> 25	> 25
CC(=O)Nn1c(Cc2ccc(Cl)cc2)nn(C)c1=O	> 100	> 100	> 100	–	> 100	> 100	> 100	> 100	> 100	> 100	> 100	> 100	> 100	> 100	> 100	> 100
COc1ccc(/C(=N/Nc2nc3ccccc3n2Cc2ccccc2)C(=O)O)cc1	9.88	91.7	> 100	–	42.3	68.8	21.4	> 100	> 100	63.2	> 100	> 100	49.1	27.8	62.2	81.9
CCOC(=O)/C1=C(\C)N(Cc2ccccc2)C(=O)c2ccccc2C(=O)c2c(OC(C)=O)ccc(OC(C)=O)c21	> 100	> 100	> 100	93	> 100	> 100	> 100	–	> 100	> 100	> 100	> 100	43.9	> 100	> 100	> 100
CC1=C(C)C2(C#N)C(=O)N3C(=NC(c4ccco4)NC3c3ccco3)C2(C#N)C(c2ccco2)N1 (stereo not given)	> 100	> 100	> 100	> 100	> 100	> 100	> 100	> 100	> 100	> 100	> 100	> 100	> 100	> 100	> 100	–
